In experiment [1] the test system is LAH binding monoclonal antibody (#2, #4 and #5). Kind of experiment: Binding capacity of antibody to LAH epitope, order of formalin treatment. Conditions: FIG. 15; H3N2 strain X31; formalin treatment after (Post-fix) or before (Pre-fix) the acidic treatment.
Experiment [2] relates to synthetic peptide (H3) corresponding to a portion (long alpha helix) of the stem portion. Conditions: mouse, in vivo, ip.

As for “membrane fusion-type H3N2 HA split vaccine: HA split vaccine of H3N2 influenza virus (strain X31) subjected to acidic treatment (pH 5.0), then formalin treatment”, in experiment [1], the “binding of the LAH binding monoclonal antibody to the vaccine” value was “more strongly than to the vaccine (Pre-fix)”. In addition, the “titer of the anti-LAH antibody in the sera” value in experiment [2] is recorded as “higher titer of the anti-LAH antibody than the membrane fusion-type split vaccine (Pre-fix)”.
